# Reference: ChEMBL document CHEMBL1201862, “PubChem BioAssay data set” (2004)
# Active and inactive are the calls of the source.
# Columns and labels:
# [1] = target: ADP-ribosylation factor GTPase-activating protein 1 (Rattus norvegicus, UniProt Q62848); assay: Fluorescence polarization-based biochemical high throughput dose response screening assay to identify inhibitors of ADP-ribosylation factor GTPase activating protein 1 (ARFGAP1).; format: functional
# [2] = target: Arf-GAP with SH3 domain, ANK repeat and PH domain-containing protein 1 (Homo sapiens, UniProt Q9ULH1); format: functional;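 note: biochemical fluorescence polarization dose–response screen measuring inhibition of ASAP1; ASAP1 GAP domain stimulating GTP hydrolysis by truncated human ARF1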
# [3] = target: Long-chain-fatty-acid--AMP ligase FadD28 (Mycobacterium tuberculosis, UniProt P9WQ59); assay: Fluorescence polarization aasay to screen for inhibitors that compete for the binding of FadD28 to a bisubstrate Measured in Biochemical System Using Plate Reader - 2147-01_Inhibitor_Dose_CherryPick_Activity.; format: functional, Mycobacterium tuberculosis H37Rv
# Large T antigen = Large T antigen (Simian virus 40, UniProt P03070); format: functional, Betapolyomavirus macacae;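 note: Confirmatory-stage PubChem screen for compounds that inhibit SV40 T antigen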
# Fatty acid synthase [4] = target: T1, Fatty acid synthase (Homo sapiens, UniProt P49327); assay: FAS thioesterase domain inhibitors, dose response, biochemical, endpoint fluorescence intensity, uHTS hits (AID 624327); format: functional;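 note: fluorescence from hydrolysis of an O-methyl fluorescein acyl ester substrate by the enzyme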
# Albumin = Albumin (Bos taurus, UniProt P02769); assay: Counterscreen for inhibitors of T-cell receptor (TCR)-CD3 interaction: Fluorescence-based biochemical high throughput dose response assay to identify inhibitors of T-cell receptor (TCR)-CD3 interaction using a TAMRA-labeled BSA probe.; format: functional
# Fatty acid synthase [5] = target: T1, Fatty acid synthase; assay: FAS thioesterase domain inhibitors, dose response, biochemical, kinetic fluorescence intensity (AID 624326); format: functional;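 note: rate of fluorescence rise from hydrolysis of a fluorogenic O-methyl fluorescein ester substrate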
# Beta-galactosidase = Beta-galactosidase (Escherichia coli, UniProt Q8VNN2); assay: Dose response counterscreen for EBI2 assay utilizing the enzyme, b-galactosidase.; format: functional
# [6] = target: Broad substrate specificity ATP-binding cassette transporter ABCG2 (Homo sapiens, UniProt Q9UNQ0); assay: ABCG2 efflux pump inhibitors, dose response, Ig-MXP3 cells, flow cytometry (AID 1690); format: functional
# Sequence of Broad substrate specificity ATP-binding cassette transporter ABCG2 (Q9UNQ0 whole entry): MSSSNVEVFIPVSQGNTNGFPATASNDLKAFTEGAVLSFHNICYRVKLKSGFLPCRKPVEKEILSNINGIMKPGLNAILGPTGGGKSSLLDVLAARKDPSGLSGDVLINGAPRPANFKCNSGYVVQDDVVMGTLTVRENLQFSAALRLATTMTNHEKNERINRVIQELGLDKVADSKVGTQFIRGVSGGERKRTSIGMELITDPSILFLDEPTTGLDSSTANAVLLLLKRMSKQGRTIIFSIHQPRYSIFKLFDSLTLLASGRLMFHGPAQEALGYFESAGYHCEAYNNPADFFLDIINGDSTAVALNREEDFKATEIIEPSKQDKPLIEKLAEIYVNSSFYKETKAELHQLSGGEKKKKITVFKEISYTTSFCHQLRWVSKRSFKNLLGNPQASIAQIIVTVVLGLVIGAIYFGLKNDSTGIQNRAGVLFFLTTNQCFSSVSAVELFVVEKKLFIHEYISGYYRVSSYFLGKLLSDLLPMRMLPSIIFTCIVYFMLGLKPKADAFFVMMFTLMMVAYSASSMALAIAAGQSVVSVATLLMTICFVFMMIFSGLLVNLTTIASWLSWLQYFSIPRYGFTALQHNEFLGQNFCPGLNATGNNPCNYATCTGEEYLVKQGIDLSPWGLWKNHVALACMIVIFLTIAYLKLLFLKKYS
# T1 sequence (P49327 whole entry, the tested form may be a part): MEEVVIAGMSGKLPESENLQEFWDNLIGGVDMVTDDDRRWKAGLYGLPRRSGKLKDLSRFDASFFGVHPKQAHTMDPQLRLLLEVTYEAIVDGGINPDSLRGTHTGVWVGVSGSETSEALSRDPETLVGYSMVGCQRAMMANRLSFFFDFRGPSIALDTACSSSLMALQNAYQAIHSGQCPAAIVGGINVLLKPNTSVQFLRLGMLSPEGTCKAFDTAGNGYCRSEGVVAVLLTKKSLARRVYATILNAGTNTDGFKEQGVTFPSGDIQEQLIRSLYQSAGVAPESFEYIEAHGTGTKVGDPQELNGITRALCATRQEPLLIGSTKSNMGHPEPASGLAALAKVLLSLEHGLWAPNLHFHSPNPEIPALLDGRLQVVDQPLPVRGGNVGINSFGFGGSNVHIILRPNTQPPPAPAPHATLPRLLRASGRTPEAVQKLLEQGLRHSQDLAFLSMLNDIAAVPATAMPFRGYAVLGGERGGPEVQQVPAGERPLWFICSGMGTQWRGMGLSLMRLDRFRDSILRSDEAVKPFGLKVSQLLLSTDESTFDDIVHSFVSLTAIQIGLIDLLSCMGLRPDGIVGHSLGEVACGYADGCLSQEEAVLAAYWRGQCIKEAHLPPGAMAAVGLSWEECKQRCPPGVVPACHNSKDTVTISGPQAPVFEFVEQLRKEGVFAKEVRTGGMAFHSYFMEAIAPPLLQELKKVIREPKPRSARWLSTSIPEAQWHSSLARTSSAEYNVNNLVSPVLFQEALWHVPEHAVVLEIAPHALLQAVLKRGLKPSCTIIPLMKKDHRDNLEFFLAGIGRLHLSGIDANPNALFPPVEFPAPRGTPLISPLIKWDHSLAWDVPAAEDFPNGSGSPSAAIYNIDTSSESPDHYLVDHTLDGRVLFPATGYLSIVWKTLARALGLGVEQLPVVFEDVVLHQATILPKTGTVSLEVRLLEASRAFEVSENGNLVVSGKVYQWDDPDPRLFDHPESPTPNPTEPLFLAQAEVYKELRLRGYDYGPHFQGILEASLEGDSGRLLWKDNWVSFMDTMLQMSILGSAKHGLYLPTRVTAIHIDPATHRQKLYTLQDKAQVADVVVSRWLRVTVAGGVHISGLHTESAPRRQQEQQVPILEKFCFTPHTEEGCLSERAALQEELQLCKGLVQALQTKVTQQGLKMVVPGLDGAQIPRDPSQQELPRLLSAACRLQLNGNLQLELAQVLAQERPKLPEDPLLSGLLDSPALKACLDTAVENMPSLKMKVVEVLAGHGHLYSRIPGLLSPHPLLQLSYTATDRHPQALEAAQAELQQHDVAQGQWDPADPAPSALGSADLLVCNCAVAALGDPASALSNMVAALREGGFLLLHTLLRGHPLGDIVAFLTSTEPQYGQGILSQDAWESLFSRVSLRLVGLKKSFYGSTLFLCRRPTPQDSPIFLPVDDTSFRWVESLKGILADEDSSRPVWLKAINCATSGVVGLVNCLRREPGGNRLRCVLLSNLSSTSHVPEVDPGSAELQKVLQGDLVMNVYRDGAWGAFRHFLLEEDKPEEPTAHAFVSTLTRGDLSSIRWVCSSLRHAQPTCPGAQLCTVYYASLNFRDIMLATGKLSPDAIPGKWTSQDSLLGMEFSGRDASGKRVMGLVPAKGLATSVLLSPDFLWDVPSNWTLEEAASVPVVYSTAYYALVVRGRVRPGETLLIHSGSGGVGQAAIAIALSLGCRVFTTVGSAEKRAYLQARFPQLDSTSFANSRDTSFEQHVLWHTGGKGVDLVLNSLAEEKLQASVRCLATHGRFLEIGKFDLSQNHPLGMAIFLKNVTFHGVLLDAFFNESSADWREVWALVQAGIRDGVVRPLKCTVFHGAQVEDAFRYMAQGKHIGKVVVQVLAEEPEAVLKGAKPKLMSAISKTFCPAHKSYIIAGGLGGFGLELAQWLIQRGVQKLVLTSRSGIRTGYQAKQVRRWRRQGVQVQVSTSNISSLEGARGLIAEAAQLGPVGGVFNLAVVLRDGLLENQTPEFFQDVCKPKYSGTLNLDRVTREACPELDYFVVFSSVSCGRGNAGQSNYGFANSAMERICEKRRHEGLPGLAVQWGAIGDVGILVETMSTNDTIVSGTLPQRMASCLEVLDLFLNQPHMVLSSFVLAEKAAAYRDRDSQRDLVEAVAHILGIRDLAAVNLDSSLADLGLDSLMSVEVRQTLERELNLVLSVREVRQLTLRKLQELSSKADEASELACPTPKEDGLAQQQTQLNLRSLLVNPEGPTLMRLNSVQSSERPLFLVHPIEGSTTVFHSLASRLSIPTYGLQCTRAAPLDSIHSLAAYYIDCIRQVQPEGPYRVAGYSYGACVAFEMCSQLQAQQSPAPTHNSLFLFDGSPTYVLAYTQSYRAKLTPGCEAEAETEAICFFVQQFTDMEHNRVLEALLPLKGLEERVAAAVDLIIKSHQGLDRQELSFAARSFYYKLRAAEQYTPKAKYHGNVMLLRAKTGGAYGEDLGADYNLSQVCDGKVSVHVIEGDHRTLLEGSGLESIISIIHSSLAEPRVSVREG
# Sequence of Beta-galactosidase (Q8VNN2 whole entry): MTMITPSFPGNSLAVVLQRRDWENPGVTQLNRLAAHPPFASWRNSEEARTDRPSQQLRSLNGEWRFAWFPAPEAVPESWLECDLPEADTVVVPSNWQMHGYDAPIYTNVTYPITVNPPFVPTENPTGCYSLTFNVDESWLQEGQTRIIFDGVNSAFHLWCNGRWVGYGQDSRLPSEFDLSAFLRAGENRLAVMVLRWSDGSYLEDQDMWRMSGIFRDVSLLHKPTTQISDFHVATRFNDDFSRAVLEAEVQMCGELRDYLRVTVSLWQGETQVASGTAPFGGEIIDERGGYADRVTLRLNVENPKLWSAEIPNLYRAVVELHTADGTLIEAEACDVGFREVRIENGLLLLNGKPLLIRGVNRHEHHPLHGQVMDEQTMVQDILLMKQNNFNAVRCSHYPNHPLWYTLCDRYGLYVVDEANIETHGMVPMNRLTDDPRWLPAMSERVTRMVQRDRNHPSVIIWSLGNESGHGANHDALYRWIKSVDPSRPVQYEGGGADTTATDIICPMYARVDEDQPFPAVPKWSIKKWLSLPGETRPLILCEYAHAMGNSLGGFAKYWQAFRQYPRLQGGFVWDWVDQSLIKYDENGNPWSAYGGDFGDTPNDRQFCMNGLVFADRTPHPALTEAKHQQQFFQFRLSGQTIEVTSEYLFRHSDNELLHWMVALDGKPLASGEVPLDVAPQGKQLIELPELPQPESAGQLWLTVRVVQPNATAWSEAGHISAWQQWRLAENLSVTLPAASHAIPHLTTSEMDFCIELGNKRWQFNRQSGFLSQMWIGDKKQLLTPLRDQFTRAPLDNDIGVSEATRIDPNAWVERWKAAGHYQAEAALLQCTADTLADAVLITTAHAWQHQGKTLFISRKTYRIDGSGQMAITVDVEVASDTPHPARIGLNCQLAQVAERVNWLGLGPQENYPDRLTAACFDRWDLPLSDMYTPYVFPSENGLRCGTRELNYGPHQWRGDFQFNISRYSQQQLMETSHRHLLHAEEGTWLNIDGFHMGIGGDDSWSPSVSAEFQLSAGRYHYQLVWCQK
# Sequence of ADP-ribosylation factor GTPase-activating protein 1 (Q62848 whole entry, the tested form may be a part): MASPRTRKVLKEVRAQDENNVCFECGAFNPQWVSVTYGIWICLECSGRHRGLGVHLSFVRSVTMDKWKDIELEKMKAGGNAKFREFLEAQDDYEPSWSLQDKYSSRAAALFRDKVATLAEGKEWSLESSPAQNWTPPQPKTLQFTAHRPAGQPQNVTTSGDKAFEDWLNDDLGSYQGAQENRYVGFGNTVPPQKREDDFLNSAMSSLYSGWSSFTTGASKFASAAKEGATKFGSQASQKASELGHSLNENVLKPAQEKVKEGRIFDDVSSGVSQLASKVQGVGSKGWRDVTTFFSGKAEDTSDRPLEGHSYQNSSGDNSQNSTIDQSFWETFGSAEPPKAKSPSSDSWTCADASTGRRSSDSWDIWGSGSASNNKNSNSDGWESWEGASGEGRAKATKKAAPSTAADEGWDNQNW
smiles,measurement,setting,value
Cc1ccc2nc(SCC(=O)N3CC(C)OC(C)C3)nc(=O)n2c1 (centres undefined),IC50,[1],10.7 µM (inactive)
same,IC50,[2],20.9 µM (inactive)
Cc1[nH]c2ccccc2c1-c1csc(NC(=O)CSCC(=O)O)n1,AC50,[3],> 100 µM (inactive)
same,IC50,Large T antigen,26.2 µM (active)
COc1cc([N+](=O)[O-])cc(/C=N/NC(=O)c2cc(C)nc3ccccc23)c1O,IC50,Fatty acid synthase [4],15.5 µM (active)
same,IC50,Albumin,> 94.1 µM (inactive)
same,IC50,Fatty acid synthase [5],11.7 µM (active)
COc1cccc(C(=O)N2CCN(C(=O)COc3ccc4ccccc4c3)CC2)c1,IC50,Beta-galactosidase,> 80 µM (inactive)
COc1cc(C(=O)Nc2ccc(S(=O)(=O)NC(C)C)cc2)cc(OC)c1OC,EC50,[6],1.32 µM (inactive)
